From US20230286927A1, “2-PHENYLBENZOTRIAZOL-5-AMINE DERIVATIVES FOR THE TREATMENT AND PROPHYLAXIS OF HEPATITIS B VIRUS (HBV) INFECTION” (priority 2020, published 2023) come the findings set out here.

Data set [1] concerns HBsAg. Nature of the data set: PHH natural infection assay, HBsAg (alphalisa). Type of data set: cell-based, HBV. As to conditions: Hepatitis B virus, Hepatocyte, 72 h, read-out: HBsAg IC50. Here is the method:
(§1) Detailed procedures regarding primary human hepatocyte (PHH) HBV natural infection assay are described as below. One tube of frozen PHH (10 million cells) is thawed in 37° C. water bath and then transferred to 20 mL of PHH thawing medium (Sigma, InVitroGRO HT Medium, Cat. S03319) with gently mixing. The cells were then centrifuged at […] for 5 min, the supernatant was discarded and the tube was refilled with 25 mL of PHH plating medium (Sigma, InVitroGRO CP Medium, Cat. S03317). The tube was shaken very gently to re-suspend all cells, and then 50 μl of cells were transferred to each well 384-well collagen I coated plate with appropriate liquid handling equipment, e.g. Integra VIAFLO384 or Agilent Bravo. The cells were then cultured for 24 hours in a cell incubator. For HBV infection, after PHH attachment on the culture plate, the plating medium was removed and replenished with PHH culture medium containing HBV virus. The PHH culture medium was prepared with Dulbecco's Modified Eagle Medium (DMEM)/F12 (1:1 in volume ratio) containing 10% fetal bovine serum (Gibco, Cat. 10099141), 5 ng/mL human epidermal growth factor (Gibco, Cat.PHG031IL), 20 ng/mL dexamethasone (Sigma, Cat.D4902-100 mg), 250 ng/mL human recombinant insulin (Gibco, Cat.41400045) and 100 U/mL penicillin. HBV virus at 200 genome equivalent (GE) per cell with 4% PEG8000 (Sigma, Cat.P1458) containing culture medium were added to the PHH culture medium for infection. The cells were then cultured for 24 hours in cell incubator. Then the cell culture supernatant was removed. The HBV-infected PHH were cultured with sandwich culture method with PHH culture medium containing 1% DMSO and 0.25 mg/mL matrix gel for 72 hours. The supernatant was then refreshed with PHH culture medium containing different concentrations of testing compounds for two times with 72-hour interval. At the end of treatment, the supernatant was collected for viral markers measurements, including HBsAg, HBeAg, HBV DNA and cytotoxicity. HBsAg and HBeAg were detected using alphalisa method using their specific antibodies. For HBV DNA detection, HBV DNA Quantitative Fluorescence Diagnostic Kit (Sansure Biotech Inc.) was used following the manufacture's protocol. Cytotoxicity was determined using Cell Counting Kit-8 (CCK8, Dojindo Molecular Technologies, Inc.).
(§2) The compounds of the present invention were tested for their capacity to inhibit HBsAg and HBeAg as described herein.
Background: Bead proximity is the source of the signal in Alpha formats.

Data set [2] concerns HBeAg. Nature of the data set: PHH natural infection assay, HBeAg (alphalisa). The format is cell-based, HBV. As to conditions: Hepatitis B virus, Hepatocyte, 72 h, read-out: HBeAg IC50. Here is the method:
as §1, §2

Data set [3] in a line: Cytotoxicity in PHH natural infection assay (Cell Counting Kit-8). The format is cell-based. Particulars: HBV-infected primary human hepatocytes, CCK8. How it is done:
as §1

A value given as a limit tells only on which side of the number the result lay.

A word on the IC50: it is the concentration that gives 50% inhibition. In general, CC50 refers to the concentration at which the toxic effect on the cells reaches its halfway point. `CCN(CC)c1ccc2nn(-c3ccc(Cl)cc3)nc2c1` [Example 34, 2-(4-Chlorophenyl)-N,N-diethyl-benzotriazol-5-amine]: the results for the 50% inhibitory concentration (IC50) in data set [1] and in data set [2] were 1.8 µM and 2.5 µM, respectively. Also, the half-maximal cytotoxic concentration (CC50) at 144 h in data set [3] is above 100 µM.

As for `COCCNc1ccc2nn(-c3cccc(Cl)c3)nc2c1` [Example 18, 2-(3-Chlorophenyl)-N-(2-methoxyethyl)benzotriazol-5-amine], the half-inhibitory concentration (IC50) in data set [1] was determined as 4.5 µM; in data set [2] it was 6.83 µM. This molecule also gave a CC50 at 144 h in data set [3] above 100 µM.

Regarding `CS(=O)(=O)c1ccc(-n2nc3ccc(N)cc3n2)cc1` [Example 7, 2-(4-Methylsulfonylphenyl)benzotriazol-5-amine], the IC50 in data set [1] is 5.67 µM; in data set [2], 3.21 µM. Besides, in data set [3], the cytotoxic concentration (CC50) at 144 h is above 100 µM.

Turning to `O=C(CC(F)(F)F)Nc1ccc2nn(-c3ccc(F)cc3)nc2c1` [Example 44, 3,3,3-trifluoro-N-[2-(4-fluorophenyl)benzotriazol-5-yl]propanamide], the half-maximal inhibitory concentration (IC50) in data set [1] was 6.87 µM; in data set [2], 11.7 µM. Also, the 50% cytotoxic concentration (CC50) at 144 h in data set [3] is above 100 µM.

With `Clc1ccc(-n2nc3ccc(NCC4CCC4)cc3n2)cc1` [Example 24, 2-(4-Chlorophenyl)-N-(cyclobutylmethyl)benzotriazol-5-amine], the 50% inhibitory concentration (IC50) in data set [1] came out at 7.72 µM; in data set [2], 8.9 µM. Moreover, the 50% cytotoxic concentration (CC50) at 144 h in data set [3] was above 100 µM.

For the molecule `O=C(Nc1ccc2nn(-c3ccc(Cl)cc3)nc2c1)C1CCCCO1` (stereo not drawn) [Example 46, N-[2-(4-chlorophenyl)benzotriazol-5-yl]tetrahydropyran-2-carboxamide], the IC50 was 2.68 µM in data set [1] and 1.14 µM in data set [2]. This molecule gave a CC50 at 144 h in data set [3] above 100 µM.

Turning to `COc1ccc(-n2nc3ccc(N)cc3n2)cc1` [Example 3, 2-(4-Methoxyphenyl)benzotriazol-5-amine], the concentration for half-maximal inhibition (IC50) in data set [1] came to 1.5 µM; in data set [2] it was 1.7 µM. The CC50 at 144 h in data set [3] was above 100 µM.

With `CC(Nc1ccc2nn(-c3ccc(Cl)cc3)nc2c1)C(F)(F)F` (stereo not drawn) [Example 32, 2-(4-Chlorophenyl)-N-(2,2,2-trifluoro-1-methyl-ethyl)benzotriazol-5-amine], the IC50 in data set [1] came to 9.14 µM; in data set [2] it was 10.7 µM. This molecule also registered a cytotoxic concentration (CC50) at 144 h in data set [3] above 100 µM.

For `COCCCNc1ccc2nn(-c3ccc(F)cc3)nc2c1` [Example 22, 2-(4-Fluorophenyl)-N-(3-methoxypropyl)benzotriazol-5-amine], the IC50 in data set [1] was 3.27 µM; in data set [2] it was 6.4 µM. This molecule came in with a half-maximal cytotoxic concentration (CC50) at 144 h in data set [3] above 100 µM.

As to `Cc1csc(Nc2ccc3nn(-c4ccc(Cl)cc4)nc3c2)n1` [Example 64, N-[2-(4-chlorophenyl)benzotriazol-5-yl]-4-methyl-thiazol-2-amine], the IC50 in data set [1] was 1.42 µM; in data set [2] it was 3.04 µM. For the same molecule, the CC50 at 144 h in data set [3] is above 100 µM.

Regarding `O=C(CCC(F)(F)F)Nc1ccc2nn(-c3ccc(Cl)cc3)nc2c1` [Example 52, N-[2-(4-chlorophenyl)benzotriazol-5-yl]-4,4,4-trifluoro-butanamide], the IC50 in data set [1] stood at 2.25 µM; in data set [2] it was 1.89 µM. Besides, the cytotoxic concentration (CC50) at 144 h in data set [3] was above 100 µM.

For the molecule `O=C(Nc1ccc2nn(-c3ccc(F)cc3)nc2c1)C1CCOC1` (stereo not drawn) [Example 40, N-[2-(4-fluorophenyl)benzotriazol-5-yl]tetrahydrofuran-3-carboxamide], the IC50 in data set [1] is 6.66 µM; in data set [2], 6.76 µM. Further, the CC50 at 144 h in data set [3] is above 100 µM.

As to `CN(C)c1ccc2nn(-c3ccc(Cl)cc3)nc2c1` [Example 33, 2-(4-Chlorophenyl)-N,N-dimethyl-benzotriazol-5-amine], the IC50 in data set [1] turned out to be 4 µM; in data set [2], 3.71 µM. This molecule also gave a half-maximal cytotoxic concentration (CC50) at 144 h in data set [3] above 100 µM.

For the molecule `CCNc1ccc2nn(-c3ccc(Cl)cc3)nc2c1` [Example 13, 2-(4-Chlorophenyl)-N-ethyl-benzotriazol-5-amine], the IC50 in data set [1] was 1.3 µM; in data set [2], 1.6 µM. In addition, the CC50 at 144 h in data set [3] is above 100 µM.

For `COCCNc1ccc2nn(-c3cccc(OC)c3)nc2c1` [Example 17, N-(2-methoxyethyl)-2-(3-methoxyphenyl)benzotriazol-5-amine], the IC50 was 8.06 µM in data set [1] and 15.4 µM in data set [2]. The molecule further displayed a CC50 at 144 h in data set [3] above 100 µM.

As for `O=C(Nc1ccc2nn(-c3ccc(Cl)cc3)nc2c1)C1COCCO1` (stereo not drawn) [Example 47, N-[2-(4-chlorophenyl)benzotriazol-5-yl]-1,4-dioxane-2-carboxamide], the 50% inhibitory concentration (IC50) in data set [1] was 3.73 µM; in data set [2] it was 1.84 µM. The same molecule had a CC50 at 144 h in data set [3] above 100 µM.

Regarding `NC(=S)Nc1ccc2nn(-c3ccc(Cl)cc3)nc2c1` [Example 53, [2-(4-Chlorophenyl)benzotriazol-5-yl]thiourea], the results for the half-inhibitory concentration (IC50) in data set [1] and in data set [2] were 3.37 µM and 2.87 µM, respectively. In data set [3], the CC50 at 144 h was above 100 µM.

Consider `CC(=O)NC(=S)Nc1ccc2nn(-c3ccc(Cl)cc3)nc2c1` [Example 55, N-[[2-(4-chlorophenyl)benzotriazol-5-yl]carbamothioyl]acetamide], for which the values for the IC50 in data set [1] and in data set [2] were 2.97 µM and 5.1 µM, respectively. For the same molecule, the half-maximal cytotoxic concentration (CC50) at 144 h in data set [3] was above 100 µM.

As for `CC(C)c1csc(Nc2ccc3nn(-c4ccc(Cl)cc4)nc3c2)n1` [Example 62, N-[2-(4-chlorophenyl)benzotriazol-5-yl]-4-isopropyl-thiazol-2-amine], the IC50 stood at 3.8 µM in data set [1] and 5.8 µM in data set [2]. In addition, the CC50 at 144 h in data set [3] was above 100 µM.

As for `O=C(Nc1ccc2nn(-c3ccc(F)cc3)nc2c1)C1CCOCC1` [Example 41, N-[2-(4-fluorophenyl)benzotriazol-5-yl]tetrahydropyran-4-carboxamide], the half-inhibitory concentration (IC50) turned out to be 2.19 µM in data set [1] and 2.31 µM in data set [2]. Also, the half-maximal cytotoxic concentration (CC50) at 144 h in data set [3] was above 100 µM.

On to `CCCNc1ccc2nn(-c3ccc(Cl)cc3)nc2c1` [Example 14, 2-(4-Chlorophenyl)-N-propyl-benzotriazol-5-amine], for which the IC50 in data set [1] worked out at 2.92 µM; in data set [2], 3.97 µM. This molecule also displayed a CC50 at 144 h in data set [3] above 100 µM.

`O=C(NC(=S)Nc1ccc2nn(-c3ccc(Cl)cc3)nc2c1)c1ccccc1` [Example 58, N-[[2-(4-chlorophenyl)benzotriazol-5-yl]carbamothioyl]benzamide]: the IC50 in data set [1] is 1.17 µM; in data set [2], 1.27 µM. The molecule also yielded a CC50 at 144 h in data set [3] above 100 µM.

Consider `CC(C)C(=O)NC(=S)Nc1ccc2nn(-c3ccc(Cl)cc3)nc2c1` [Example 57, N-[[2-(4-chlorophenyl)benzotriazol-5-yl]carbamothioyl]-2-methyl-propanamide], for which the IC50 in data set [1] was 2.5 µM; in data set [2] it was 3.72 µM. In data set [3], this molecule registered a CC50 at 144 h above 100 µM.

In the case of `Fc1ccc(-n2nc3ccc(NCC4CCOC4)cc3n2)cc1` (stereo not drawn) [Example 20, 2-(4-Fluorophenyl)-N-(tetrahydrofuran-3-ylmethyl)benzotriazol-5-amine], the results for the 50% inhibitory concentration (IC50) in data set [1] and in data set [2] were 5.66 µM and 7.3 µM, respectively. This molecule also returned a CC50 at 144 h in data set [3] above 100 µM.

In the case of `Nc1ccc2nn(-c3ccc(Cl)cc3)nc2c1` [Example 2, 2-(4-Chlorophenyl)benzotriazol-5-amine], the concentration for half-maximal inhibition (IC50) in data set [1] was 7.97 µM; in data set [2] it was 5.29 µM. This molecule displayed a CC50 at 144 h in data set [3] above 100 µM.

As to `Cc1cc(N)cc2nn(-c3ccc(Cl)cc3)nc12` [Example 11, 2-(4-Chlorophenyl)-7-methyl-benzotriazol-5-amine], the figures for the half-maximal inhibitory concentration (IC50) in data set [1] and in data set [2] were 2.66 µM and 3.89 µM, respectively. Besides, the CC50 at 144 h in data set [3] was above 100 µM.

In the case of `CCS(=O)(=O)c1ccc(-n2nc3ccc(N)cc3n2)cc1` [Example 8, 2-(4-Ethylsulfonylphenyl)benzotriazol-5-amine], the IC50 is 6.32 µM in data set [1] and 6.26 µM in data set [2]. Moreover, the half-maximal cytotoxic concentration (CC50) at 144 h in data set [3] was above 100 µM.

With `FC(F)(F)CNc1ccc2nn(-c3ccc(Cl)cc3)nc2c1` [Example 28, 2-(4-Chlorophenyl)-N-(2,2,2-trifluoroethyl)benzotriazol-5-amine], the IC50 in data set [1] amounted to 2.14 µM; in data set [2] it was 2.46 µM. The same molecule had a CC50 at 144 h in data set [3] above 100 µM.

Take `COCCNc1ccc2nn(-c3ccc(Cl)cc3)nc2c1` [Example 15, 2-(4-Chlorophenyl)-N-(2-methoxyethyl)benzotriazol-5-amine]: the figures for the IC50 in data set [1] and in data set [2] were 3.71 µM and 2.36 µM, respectively. Moreover, in data set [3], the 50% cytotoxic concentration (CC50) at 144 h was above 100 µM.
